Test results as given in patent publication US20020165130A1, “Method of sensitizing microbial cells to antimicrobial compounds” (priority 1998, published 2002).
“Also recorded” adds a separate entry of the source.

What was measured:
[1] = system: Staphylococcus aureus ATCC 6538; experiment: Antibiotic disc assay (zones of inhibition), S. aureus; format: cell-based; conditions: for ability to sensitize S. aureus to ciprofloxacin: 0.5 mM terpenoid; for ability to sensitize S. aureus to ciprofloxacin / zone size, ciprofloxacin 5 μg disc: ciprofloxacin 5 μg disc; for sensitization to six different antibiotics: disc diffusion, 0.5-2 mM sesquiterpenoid; for zone size, ciprofloxacin 5 μg disc: terpenoid at 0.5 mM in agar overlay
Protocol: (§1) Erwinia sp. #351 was from Presque Isle Cultures, Presque Isle, Pa. Lactobacillus fermentum ATCC 14931, zygosaccharomyces bailii ATCC 60483 and E. coli ATCC 25922 (National Committee on Clinical Laboratory Standards antibiotic test strain) were from the American Type Culture Collection, Manassas, Va. Staphylococcus aureus ATCC 6538 and Enterococcus faecalis Bact. 4025 were obtained from the UW-Madison Department of Bacteriology culture collection. All bacteria except for L. fermentum were grown statically in screwcap tubes containing 10 ml Trypticase Soy Broth (BBL, Cockeysville, Md.) for 20-22 hours at 30° C. L. fermentum was grown statically in screwcap tubes containing 10 ml MRS broth (Difco) for 20-22 hours at 30° C. Cultures of Z. bailii were grown in 125 ml culture flasks containing 50 ml YM broth (Difco) on a rotary shaker set at 200 rpm for 20-22 hours at 25° C.
(§2) The activity of terpenoid compounds toward facilitating susceptibility to antibiotics was assessed using an antibiotic disc assay. For this assay, cells from an overnight growth were suspended to a known concentration in 0.5 ml 67 mM phosphate buffer, pH 7.0 and mixed with 4.5 ml 0.7% Iso-Sensitest agar (Oxoid, Basingstoke, Hampshire, England) overlay tempered to 50° C. Terpenoid compounds dissolved in absolute ethanol were added to the cell/agar overlay mixture yielding final concentrations of 0.5, 1.0 or 2.0 mM, depending on the experiment. The final concentration of ethanol in cell overlays was 0.5% and the final concentration of target cells was ca. 10^6 cfu/ml. After thorough vortexing, terpenoid-containing cell overlays were poured over hardened Iso-Sensitest agar (2% agar) plates and allowed to set. […] After incubation, zones of inhibition were measured with a ruler from the bottom of the plates.

[2] = system: Enterococcus faecalis Bact. 4025; format: cell-based; conditions: E. faecalis; for degree of sensitization to antibiotics: disc diffusion; for degree of sensitization to antibiotics / zones smaller than control plates by: 1 mM sesquiterpenoid; for zones smaller than control plates by: clindamycin 2 μg disc
Protocol: as §1, §2

[3] = system: Lactobacillus fermentum ATCC 14931; experiment: Flow cytometry, uptake of ethidium bromide by L. fermentum; format: cell-based; conditions: 15 μM ethidium bromide; for uptake of ethidium bromide (ethidium-conferred fluorescence): 0.5 mM sesquiterpenoid, 40 minutes
Protocol: (§3) Erwinia sp. #351 was from Presque Isle Cultures, Presque Isle, Pa. Lactobacillus fermentum ATCC 14931, zygosaccharomyces bailii ATCC 60483 and E. coli ATCC 25922 (National Committee on Clinical Laboratory Standards antibiotic test strain) were from the American Type Culture Collection, Manassas, Va. Staphylococcus aureus ATCC 6538 and Enterococcus faecalis Bact. 4025 were obtained from the UW-Madison Department of Bacteriology culture collection. All bacteria except for L. fermentum were grown statically in screwcap tubes containing 10 ml Trypticase Soy Broth (BBL, Cockeysville, Md.) for 20-22 hours at 30° C. L. fermentum was grown statically in screwcap tubes containing 10 ml MRS broth (Difco) for 20-22 hours at 30° C. Cultures of Z. bailii were grown in 125 ml culture flasks containing 50 ml YM broth (Difco) on a rotary shaker set at 200 rpm for 20-22 hours at 25° C. For experiments involving flow cytometry, overnight cultures of Erwinia sp., L. fermentum and Z. bailli were set to a concentration of ca. 10^7 cfu/ml in 67 mM phosphate buffer, pH 7.0 (filtered, 0.2 μm). For the examination of sesquiterpenoids, cell suspensions containing either 0.5% ethanol and 15 μM ethidium bromide or 0.5 mM apritone, bisabolol, nerolidol or farnesol dissolved in ethanol (0.5% ethanol, final concentration) and 15 μM ethidium bromide were incubated for 40 minutes at room temperature. After incubation, cell suspensions were diluted 1:10 in 67 mM phosphate buffer, pH 7.0 (filtered, 0.2 μm) and examined using a FACScan flow cytometer (Becton Dickinson and Company, Cockeysville, Md.). Data were collected in logarithmic mode on forward scatter, side scatter and fluorescence characteristics of the cells.

[4] = system: zygosaccharomyces bailii ATCC 60483; experiment: Flow cytometry, uptake of ethidium bromide by Z. bailii; format: cell-based; conditions: 0.5 mM sesquiterpenoid, 15 μM ethidium bromide, 40 minutes
Protocol: as §3

E. coli ATCC 25922 = experiment: Plating assay, nerolidol enhancing polymyxin B activity against E. coli; format: cell-based, Escherichia coli; conditions: 1 mM nerolidol plus 10 ppm polymyxin B, up to 30 minutes at 37° C.
Protocol: as §1, with “25° C. […]” for “25° C.”
Cell suspensions (1.7×10^7 cfu/ml in 67 mM phosphate buffer, pH 7.0) were treated as shown and incubated for up to 30 minutes at 37° C. Cell viability was determined at appropriate intervals by pour plating with Trypticase Soy agar tempered to 50° C.

SMILES	ability to sensitize S. aureus to ciprofloxacin [1]	sensitization to six different antibiotics [1]	zone size, ciprofloxacin 5 μg disc [1] [mm]	degree of sensitization to antibiotics [2]	uptake of ethidium bromide (ethidium-conferred fluorescence) [3]	uptake of ethidium bromide (fluorescence, chromosomal staining) [4]	zones smaller than control plates by [2] [mm]	inhibitory by itself in disc assay overlay ([1]; all concentrations used (0.5, 1, 2 mM))	inhibitory by itself in disc assay overlay ([2]; 1 mM)	uptake of ethidium bromide (ethidium-conferred fluorescence) ([3]; listed as Farnesol)	enhancement of inhibition zone size ([2]; nerolidol 1 mM combined with gentamicin 10 μg disc)	time to substantial uptake of ethidium bromide ([3]; 0.5 mM nerolidol) [min]	susceptibility of E. coli to polymyxin B (cell viability, cfu/ml) (E. coli ATCC 25922)
CC(C)=CCC/C(C)=C/CC1CCCC1=O (stereo not drawn) [apritone]	least effective	readily sensitized	24	only a modest degree of sensitization	facilitated the uptake of ethidium bromide	greatest degree of chromosomal staining; also recorded: became more fluorescent	–	–	–	–	–	–	–
CC(C)=CCC[C@](C)(O)C1CC=C(C)CC1 (stereo partly drawn) [bisabolol]	–	readily sensitized	25	only a modest degree of sensitization	facilitated the uptake of ethidium bromide	became more fluorescent	1	–	–	–	–	–	–
CC(C)=CCCC(C)=CCCC(C)=CCO [farnesol]	–	–	–	–	facilitated the uptake of ethidium bromide	became more fluorescent	–	inhibitory	inhibitory	highest ethidium-conferred fluorescence peak	–	–	–
C=CC(C)(O)CCC=C(C)CCC=C(C)C (stereo not drawn) [nerolidol]	most effective	readily sensitized	27.5	only a modest degree of sensitization	facilitated the uptake of ethidium bromide	became more fluorescent	1	–	–	–	almost two-fold enhancement	≤ 5	dramatic increase in the susceptibility; also recorded: synergistic effect
